Assay results from ChEMBL document CHEMBL1139650, “In silico fragment-based discovery of DPP-IV S1 pocket binders” (Bioorg Med Chem Lett, 2006).
pIC50: −log10 of the molar value.

Target: Dipeptidyl peptidase 4 (Homo sapiens, UniProt P27487)
Assay: Inhibition of DPP4

Sequence of Dipeptidyl peptidase 4 (P27487 whole entry): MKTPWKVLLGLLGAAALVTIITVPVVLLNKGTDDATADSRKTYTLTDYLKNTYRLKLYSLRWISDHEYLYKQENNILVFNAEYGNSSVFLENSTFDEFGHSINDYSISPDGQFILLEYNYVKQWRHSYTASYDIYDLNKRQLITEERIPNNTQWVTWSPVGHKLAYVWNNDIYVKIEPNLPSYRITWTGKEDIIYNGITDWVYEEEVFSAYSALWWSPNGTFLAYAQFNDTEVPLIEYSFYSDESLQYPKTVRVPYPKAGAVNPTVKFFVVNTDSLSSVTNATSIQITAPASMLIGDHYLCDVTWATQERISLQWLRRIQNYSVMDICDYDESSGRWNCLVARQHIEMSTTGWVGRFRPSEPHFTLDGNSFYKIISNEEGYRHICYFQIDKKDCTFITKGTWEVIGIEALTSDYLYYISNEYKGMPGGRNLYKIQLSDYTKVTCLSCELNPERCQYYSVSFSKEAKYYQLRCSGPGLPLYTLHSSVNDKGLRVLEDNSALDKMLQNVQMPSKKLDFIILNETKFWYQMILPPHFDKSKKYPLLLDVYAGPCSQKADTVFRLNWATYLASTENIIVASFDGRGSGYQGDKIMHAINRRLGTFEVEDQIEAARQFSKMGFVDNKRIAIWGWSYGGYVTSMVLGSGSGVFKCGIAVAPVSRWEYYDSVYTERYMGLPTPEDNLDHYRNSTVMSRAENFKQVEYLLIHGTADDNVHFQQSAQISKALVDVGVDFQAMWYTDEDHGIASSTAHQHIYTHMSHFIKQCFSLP

SMILES	pIC50
N[C@H](c1ccccc1)[C@@H](N)c1ccccc1	4.12
N[C@H](c1ccccc1)[C@H](N)c1ccccc1	4.35
